Earlier results as cited in US20140004171A1, “TREATMENT OF ENDOMETRIOSIS BY INTRAVAGINAL ADMINISTRATION OF A LOW DOSE OF A SELECTIVE PROGESTERONE RECEPTOR MODULATOR (SPRM), ANTI-PROGESTIN, OR ANTI-PROGESTATIONAL AGENT” (ARSTAT Inc., priority 2011, published 2014).

What was measured:
[1] = tested on: endometrial lining of the uterus; conditions: oral
liver enzymes = conditions: oral
women with endometriosis [2] = conditions: oral, 100 mg daily for three months
women with endometriosis [3] = conditions: oral, 50 mg daily for 6 months, nine women
women with endometriosis [4] = conditions: oral, 5 mg daily for 6 months, seven women
[5] = tested on: uterine and fibroid volumes

COC[C@]1(OC)CC[C@H]2[C@@H]3CCC4=CC(=O)CCC4=C3[C@@H](c3ccc(/C=N/O)cc3)C[C@@]21C [asoprisnil]
Safety finding that terminated Phase III studies [1]: changes in the endometrial lining of the uterus

COCC(=O)[C@@]1(OC(C)=O)CC[C@H]2[C@@H]3CCC4=CC(=O)CCC4=C3[C@@H](c3ccc(N(C)C)cc3)C[C@@]21C [CDB-4124]
Safety finding that suspended Phase III studies (liver enzymes): significant increases in liver enzymes

CC#C[C@]1(O)CC[C@H]2[C@@H]3CCC4=CC(=O)CCC4=C3[C@@H](c3ccc(N(C)C)cc3)C[C@@]21C [mifepristone]
Amenorrhea reported (women with endometriosis [2]; six normally cycling women with endometriosis): all study participants | Change in the extent of endometriosis (follow-up laparoscopy) (women with endometriosis [2]; six women): no significant change | Improvement in pelvic pain (women with endometriosis [2]; six women): all women | Amenorrhea without hypoestrogenism (women with endometriosis [3]): All patients | Pelvic pain and uterine cramping improved (women with endometriosis [3]): all patients | Regression of endometriosis (laparoscopic assessment of endometrial implants, AFS score) (women with endometriosis [3]): 55% | Cyclic bleeding ceased (women with endometriosis [4]): all patients | Decrease of mean endometriosis scores (women with endometriosis [4]): 20% | Pelvic pain improved (women with endometriosis [4]): six of seven | Oral dose effective in the reduction of uterine and fibroid volumes and related symptoms [5]: ≥ 10 mg/day | Incidence of amenorrhea ([5]; oral, 2.5 mg/day): lower incidence of amenorrhea | Reduction of uterine volume ([5]; oral, 2.5 mg/day): appreciably smaller reduction of uterine volume | Ability to reduce uterine volume and eliminate some fibroid-related symptoms ([5]; oral, 5 mg/day): limited | Incidence of side effects (endometrial hyperplasia, hot flashes, elevated liver enzymes) ([5]; oral, 10 mg/day or higher): greater than desired
